The results in this text go back to patent US8871756B2 (Hoffmann-La Roche Inc., priority 2011, dated 2014).

Each structure is given as a SMILES string. Counter-ions that a name gives are not always drawn.

The test system of one assay is RSV Long strain. Nature of the assay: Viral cytopathic effect (CPE) assay, anti-RSV activity. Conditions: RSV Long strain (ATCC); cell viability after 6 days, Cell Counting kit-8. It counts as cell-based, Respiratory Syncytial Virus. As for the experimental part:
Viral cytopathic effect (CPE) assay: To measure anti-RSV activity of compounds, 96-well plates are seeded with 6×10^3 cells per well in Dulbecco's modified Eagle's medium (DMEM) containing 10% fetal bovine serum (FBS). Cells are infected the next day with sufficient RSV Long strain (ATCC) to produce an approximately 80-90% cytopathic effect after 6 days, in the presence of serial half-log diluted compound in a total volume of 200 μL per well. The viability of cells is assessed after 6 days using Cell Counting kit-8 (Dojindo Molecular Technologies). The absorbance at 450 nm and referenced at 630 nm is measured to determine 50% effective concentration (EC50).
The compounds of the present invention were tested for their anti-RSV activity, and the activation as described herein. The Examples were tested in the above assay and found to have EC50 of about 0.0001 μM to about 10 μM.
(In general: Cytopathic effects are the visible damage that an infection or toxin causes in cultured cells.)
In general, EC50 refers to the concentration at which the effect is half-maximal. `Cc1ccc2nc(N3CC[S+]([O-])c4ccccc4C3)nc(NCC3(CN)COC3)c2c1` (centres unmarked) [Example 62-1, N-{[3-(Aminomethyl)oxetan-3-yl]methyl}-6-methyl-2-(1-oxido-2,3-dihydro-1,4-benzothiazepin-4(5H)-yl)quinazolin-4-amine]: a half-maximal effect (EC50) was put at 0.0003 µM.

The assay is the same for the next values; noted with them: human respiratory syncytial virus, 144 h, RSV Long strain (ATCC); cell viability after 6 days, Cell Counting kit-8.
`NCC1(CNc2nc(N3CC[S+]([O-])c4ccccc4C3)nc3ccc(C(=O)O)cc23)COC1` (centres unmarked) [Example 108-1, 4-({[3-(Aminomethyl)oxetan-3-yl]methyl}amino)-2-(1-oxido-2,3-dihydro-1,4-benzothiazepin-4(5H)-yl)quinazoline-6-carboxylic acid] had an EC50 of 0.488 µM.
Same read-out and setting: as for `Cc1ccc2nc(N3CCS(=O)(=O)c4ccccc4C3)cc(NCC(O)CO)c2c1` (centres unmarked) [Example 32-1, 3-{[2-(1,1-Dioxido-2,3-dihydro-1,4-benzothiazepin-4(5H)-yl)-6-methylquinolin-4-yl]amino}propane-1,2-diol], the figure is 0.019 µM; as for `NCCNc1cc(N2CCCc3cc(Br)ccc3C2)nc2ccc(Cl)cc12` [Example 118-1, N-[2-(7-Bromo-1,3,4,5-tetrahydro-2H-2-benzazepin-2-yl)-6-chloroquinolin-4-yl]ethane-1,2-diamine], 1.98 µM; as for `Cc1ccc2nc(N3CC[S+]([O-])c4ccccc4C3)cc(NCC3(CN)COC3)c2c1` (centres unmarked) [Example 18-8, N-{[3-(Aminomethyl)oxetan-3-yl]methyl}-6-methyl-2-(1-oxido-2,3-dihydro-1,4-benzothiazepin-4(5H)-yl)quinolin-4-amine], 0.0007 µM.
Turning to `CSc1ccc2nc(N3CCS(=O)(=O)c4ccccc4C3)cc(NCCCN)c2c1` [Example 9-33, N-[2-(1,1-Dioxido-2,3-dihydro-1,4-benzothiazepin-4(5H)-yl)-6-(methylsulfanyl)quinolin-4-yl]propane-1,3-diamine], the midpoint of the response, the EC50, lay at 0.057 µM.
The same measure, in the same setting: as for `Cc1ccc2nc(N3CCS(=O)(=O)c4ccccc4C3)cc(-c3cc[nH]n3)c2c1` [Example 101, 4-[6-Methyl-4-(1H-pyrazol-3-yl)quinolin-2-yl]-2,3,4,5-tetrahydro-1,4-benzothiazepine 1,1-dioxide], the figure is 8.58 µM.
The same measure, in the same setting: as for `Cc1ccc2nc(N3CCS(=O)(=O)c4ccccc4C3)cc(NC(=O)CCN)c2c1` [Example 42-2, N-[2-(1,1-Dioxido-2,3-dihydro-1,4-benzothiazepin-4(5H)-yl)-6-methylquinolin-4-yl]-beta-alaninamide], the figure is 0.037 µM; as for `Cc1ccc2nc(N3CCS(=O)(=O)c4ccccc4C3)cc(N3CCC(N)CC3)c2c1` [Example 9-27, 1-[2-(1,1-Dioxido-2,3-dihydro-1,4-benzothiazepin-4(5H)-yl)-6-methylquinolin-4-yl]piperidin-4-amine], 0.797 µM.
Compound `Cc1ccc2nc(N3CCS(=O)(=O)c4ccccc4C3)cc(NCC3CCNCC3)c2c1` [Example 3-29, 2-(1,1-Dioxido-2,3-dihydro-1,4-benzothiazepin-4(5H)-yl)-6-methyl-N-(piperidin-4-ylmethyl)quinolin-4-amine] came in with an EC50 of 0.022 µM.
Same read-out and setting: in the case of `NCCNc1cc(N2CCCc3ccccc3C2)nc2ccccc12` [Example 118-9, N-[2-(1,3,4,5-Tetrahydro-2H-2-benzazepin-2-yl)quinolin-4-yl]ethane-1,2-diamine] it was 0.202 µM; in that of `Cc1ccc2nc(N3CCS(=O)(=O)c4ccccc4C3)cc(NCC(C)O)c2c1` (centres unmarked) [Example 5-7, 1-{[2-(1,1-Dioxido-2,3-dihydro-1,4-benzothiazepin-4(5H)-yl)-6-methylquinolin-4-yl]amino}propan-2-ol], 0.941 µM.
Same read-out and setting: as for `NCCCNc1cc(N2CCS(=O)(=O)c3ccccc3C2)nc2ccc(O)cc12` [Example 29, 4-[(3-Aminopropyl)amino]-2-(1,1-dioxido-2,3-dihydro-1,4-benzothiazepin-4(5H)-yl)quinolin-6-ol], the figure is 0.042 µM; as for `NCCNc1cc(N2CCCc3ccccc3C2)nc2ccc(OC(F)F)cc12` [Example 118-18, N-[6-(Difluoromethoxy)-2-(1,3,4,5-tetrahydro-2H-2-benzazepin-2-yl)quinolin-4-yl]ethane-1,2-diamine], 0.973 µM; as for `Cc1ccc2nc(N3CCS(=O)(=O)c4ccccc4C3)cc(NS(C)(=O)=O)c2c1` [Example 47-7, N-[2-(1,1-Dioxido-2,3-dihydro-1,4-benzothiazepin-4(5H)-yl)-6-methylquinolin-4-yl]methanesulfonamide trifluoroacetate], 3.41 µM.
Still for that read-out and setting: in the case of `CNCCNc1cc(N2CCCc3ccccc3C2)nc2ccccc12` [Example 118-14, N-Methyl-N′-[2-(1,3,4,5-tetrahydro-2H-2-benzazepin-2-yl)quinolin-4-yl]ethane-1,2-diamine] it was 0.616 µM; in that of `Cc1ccc2nc(N3CC[S+]([O-])c4ccccc4C3)cc(NCC(O)CO)c2c1` (centres unmarked) [Example 32-4, 3-{[6-Methyl-2-(1-oxido-2,3-dihydro-1,4-benzothiazepin-4(5H)-yl)quinolin-4-yl]amino}propane-1,2-diol], 0.272 µM; in that of `Cc1ccc2nc(N3CCC(F)(F)c4ccccc4C3)cc(N[C@H]3CC[C@@H](N)CC3)c2c1` [Example 110-9, cis-N-[2-(5,5-Difluoro-1,3,4,5-tetrahydro-2H-2-benzazepin-2-yl)-6-methylquinolin-4-yl]cyclohexane-1,4-diamine], 1.37 µM.
In turn, `Clc1ccc2nc(N3CCCc4ccccc4C3)ccc2c1` [Example 130-1, 2-(6-Chloroquinolin-2-yl)-2,3,4,5-tetrahydro-1H-2-benzazepine] showed a 50% effective concentration (EC50) of 6.84 µM.
Same read-out and setting: in the case of `Cc1cc2c(NCC3(N)COC3)cc(N3CCS(=O)(=O)c4ccccc4C3)nc2c(F)c1F` [Example 5-10, N-[(3-Aminooxetan-3-yl)methyl]-2-(1,1-dioxido-2,3-dihydro-1,4-benzothiazepin-4(5H)-yl)-7,8-difluoro-6-methylquinolin-4-amine] it was 0.397 µM; in that of `NCC1(CNc2nc(N3CC[S+]([O-])c4ccccc4C3)nc3ccc(CO)cc23)COC1` (centres unmarked) [Example 109-1, [4-({[3-(Aminomethyl)oxetan-3-yl]methyl}amino)-2-(1-oxido-2,3-dihydro-1,4-benzothiazepin-4(5H)-yl)quinazolin-6-yl]methanol], 0.00088 µM.
Consider `Cc1ccc2nc(N3CCS(=O)(=O)c4ccccc4C3)cc(N3CC[C@H](O)C3)c2c1` [Example 15-3, (3S)-1-[2-(1,1-Dioxido-2,3-dihydro-1,4-benzothiazepin-4(5H)-yl)-6-methylquinolin-4-yl]pyrrolidin-3-ol], for which the EC50 was determined as 2.7 µM.
Take `NCC(F)(F)CNc1cc(N2CC[S+]([O-])c3ccccc3C2)nc2ccc(Cl)cc12` (centres unmarked) [Example 18-6, N-[6-Chloro-2-(1-oxido-2,3-dihydro-1,4-benzothiazepin-4(5H)-yl)quinolin-4-yl]-2,2-difluoropropane-1,3-diamine]: a half-maximal response (EC50) required 0.061 µM.
The same measure, in the same setting: as for `CS(=O)(=O)c1ccc2c(c1)CCCN(c1cc(NCCN)c3ccccc3n1)C2` [Example 120-1, N-{2-[7-(Methylsulfonyl)-1,3,4,5-tetrahydro-2H-2-benzazepin-2-yl]quinolin-4-yl}ethane-1,2-diamine], the figure is 2.19 µM; as for `Cc1ccc2nc(N3CCC(F)(F)c4ccccc4C3)cc(NCCN)c2c1` [Example 111-6, N-[2-(5,5-Difluoro-1,3,4,5-tetrahydro-2H-2-benzazepin-2-yl)-6-methylquinolin-4-yl]ethane-1,2-diamine], 0.062 µM; as for `Cc1ccc2nc(N3CCC(F)(F)c4ccccc4C3)cc(NCCOCCN)c2c1` [Example 110-2, N-[2-(2-Aminoethoxy)ethyl]-2-(5,5-difluoro-1,3,4,5-tetrahydro-2H-2-benzazepin-2-yl)-6-methylquinolin-4-amine], 2.61 µM.
On the same count and under the same terms, as for `Cc1ccc2nc(N3CCC(=O)c4ccccc4C3)nc(NCC3(N)COC3)c2c1` [Example 114-1, 2-(4-{[(3-Aminooxetan-3-yl)methyl]amino}-6-methylquinazolin-2-yl)-1,2,3,4-tetrahydro-5H-2-benzazepin-5-one], the figure is 0.007 µM; as for `Cc1ccc2nc(N3CCS(=O)(=O)c4ccccc4C3)cc(NC(C)CC(N)=O)c2c1` (centres unmarked) [Example 36-2, 3-{[2-(1,1-Dioxido-2,3-dihydro-1,4-benzothiazepin-4(5H)-yl)-6-methylquinolin-4-yl]amino}butanamide], 1.47 µM.
On the same count and under the same terms, in the case of `Cc1ccc2nc(N3CCCc4ccc(F)cc4C3)cc(NCCN)c2c1` [Example 118-4, N-[2-(8-Fluoro-1,3,4,5-tetrahydro-2H-2-benzazepin-2-yl)-6-methylquinolin-4-yl]ethane-1,2-diamine] it was 0.104 µM; in that of `CNCCNc1cc(N2CCS(=O)(=O)c3ccccc3C2)nc2ccc(Cl)cc12` [Example 9-32, N-[6-Chloro-2-(1,1-dioxido-2,3-dihydro-1,4-benzothiazepin-4(5H)-yl)quinolin-4-yl]-N′-methylethane-1,2-diamine], 0.063 µM.
As for `CS(=O)(=O)c1ccc2nc(N3CCCc4ccccc4C3)cc(NCCN)c2c1` [Example 118-24, N-[6-(Methylsulfonyl)-2-(1,3,4,5-tetrahydro-2H-2-benzazepin-2-yl)quinolin-4-yl]ethane-1,2-diamine], it took 6.45 µM to reach a half-maximal effect (EC50).
Still for that read-out and setting: as for `CO[C@@H]1CN(c2cc(N3CCS(=O)(=O)c4ccccc4C3)nc3ccc(C)cc23)C[C@H]1N` (relative stereo) [Example 8-3, trans-1-[2-(1,1-Dioxido-2,3-dihydro-1,4-benzothiazepin-4(5H)-yl)-6-methylquinolin-4-yl]-4-methoxypyrrolidin-3-amine], the figure is 0.9 µM.
